Reference: patent publication US11351178B2, “Selective HDAC6 inhibitors” (ITALFARMACO S.P.A., priority 2017, dated 2022)

Legend:
[1] = molecular target: T1, recombinant human HDAC6 (Homo sapiens, UniProt Q9UBN7); assay: Enzymatic screening on recombinant human HDAC6; assay type: biochemical; conditions: Table 2; read-out: HDAC6 IC50
T1 sequence (Q9UBN7 1-1215): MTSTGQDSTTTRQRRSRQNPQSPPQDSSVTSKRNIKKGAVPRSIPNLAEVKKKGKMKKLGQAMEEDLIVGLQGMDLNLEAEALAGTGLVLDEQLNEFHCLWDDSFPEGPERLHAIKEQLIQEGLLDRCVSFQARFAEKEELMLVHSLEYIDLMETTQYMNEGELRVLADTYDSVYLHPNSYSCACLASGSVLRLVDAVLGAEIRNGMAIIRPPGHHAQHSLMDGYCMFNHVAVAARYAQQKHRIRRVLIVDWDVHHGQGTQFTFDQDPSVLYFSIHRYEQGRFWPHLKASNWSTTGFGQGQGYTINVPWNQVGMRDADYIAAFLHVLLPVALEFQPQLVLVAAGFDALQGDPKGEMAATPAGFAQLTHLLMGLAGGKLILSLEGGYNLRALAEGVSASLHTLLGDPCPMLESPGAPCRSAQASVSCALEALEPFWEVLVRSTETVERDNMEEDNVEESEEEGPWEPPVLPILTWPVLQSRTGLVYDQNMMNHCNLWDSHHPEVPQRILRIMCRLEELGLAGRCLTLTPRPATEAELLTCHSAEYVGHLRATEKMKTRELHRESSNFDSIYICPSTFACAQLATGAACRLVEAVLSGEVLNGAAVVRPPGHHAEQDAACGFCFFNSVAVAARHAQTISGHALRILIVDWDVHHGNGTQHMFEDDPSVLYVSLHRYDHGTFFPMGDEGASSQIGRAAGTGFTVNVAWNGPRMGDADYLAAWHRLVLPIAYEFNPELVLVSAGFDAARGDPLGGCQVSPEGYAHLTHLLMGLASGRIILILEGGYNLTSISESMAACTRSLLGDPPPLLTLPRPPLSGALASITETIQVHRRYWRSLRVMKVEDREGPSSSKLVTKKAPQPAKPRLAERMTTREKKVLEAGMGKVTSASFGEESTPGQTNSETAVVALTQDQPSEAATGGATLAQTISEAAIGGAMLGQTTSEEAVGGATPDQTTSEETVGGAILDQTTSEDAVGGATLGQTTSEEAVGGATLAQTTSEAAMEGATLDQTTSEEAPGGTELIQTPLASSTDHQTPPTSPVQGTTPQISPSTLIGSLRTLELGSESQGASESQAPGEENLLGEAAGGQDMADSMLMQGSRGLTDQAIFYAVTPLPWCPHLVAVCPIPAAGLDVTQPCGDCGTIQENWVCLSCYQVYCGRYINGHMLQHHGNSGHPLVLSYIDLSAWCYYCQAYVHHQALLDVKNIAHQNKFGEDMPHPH
Procedure: Enzymatic activity on recombinant human HDAC6 and HDAC3 was evaluated (Table 2) for each synthesized compound.
After a period of incubation at 30° C. (incubation times vary for different isoforms and are shown in table 1) 25 μL of solution containing the substrate were added. As substrate, FLUOR DE LYS® deacetylase substrate (Enzo Life Sciences, cat #BML-K1104, FdL), FLUOR DE LYS®-Green substrate (Enzo Life Sciences, cat #BML-K1572 FdL_G) and trifluoroacetyl-L-lysine (Tfal)-2× concentrated solution in 25 mM Tris-HCl, pH 8, 130 mM NaCl 0.05% Tween-20 10% glycerol) were used. Following a reaction period at 30° C.

[2] = Stability to Phase I metabolism in rat S9 liver fraction; assay type: in vitro ADME; conditions: after 90 min, 37° C.
Procedure: Test compounds were incubated in rat and human liver S9 fraction at 37° C. up to 90 minutes in order to evaluate their stability to Phase I metabolism by hepatic enzymes. […] The reaction was stopped placing samples on ice bath and adding acidified acetonitrile. After centrifugation (10 minutes at 14000 rpm) an aliquot of the supernatant was diluted water, filtered with 0.45 μm regenerated cellulose syringe filters and injected in HPLC-UV or in LC-MS/MS. The percentages of the amount remaining at the various incubation times with respect to the initial amount were calculated. The intrinsic clearance was also calculated.

[3] = Stability in rat plasma; assay type: in vitro ADME; conditions: after 4 hours, 37° C.
Procedure: In order to evaluate the stability to circulating enzymes, test compounds were incubated in human and rat plasma at 37° C. in a thermostated oscillating bath. Each test compound was incubated at μM (50 μM when the samples were analysed by UV/HPLC, 1 or 2 μM when the samples were analysed by LC-MS/MS) concentration for 0, 15, 30 min and 1, 2 and 4 hours. The reaction was stopped placing tubes on ice bath and adding acidified acetonitrile. After centrifugation for 10 minutes at 14000 rpm, an aliquot of the supernatant was diluted with water, filtered with 0.45 μm syringe filters and injected in HPLC-UV or in LC-MS/MS. The percentages of amount remaining at the various times of incubation with respect to initial amount were calculated. The half-life in plasma was also calculated.

Row | SMILES | IC50 [1] [nM] | residual percentage in rat S9 fraction [2] [%] | residual percentage in rat plasma [3] [%]
1 | O=C(NO)c1ccc(Sc2nnc(-c3c[nH]c4ccccc34)n2Cc2ccco2)cc1 [comp. 25, 4-[[4-(2-furylmethyl)-5-(1H-indol-3-yl)-1,2,4-triazol-3-yl]sulfanyl]benzenecarbohydroxamic acid;2,2,2-trifluoroacetic acid] | 47 | 9 | 77
2 | O=C(NO)c1ccc(Sc2nnc(-c3ccc(F)cc3)[nH]2)cc1 [comp. 29, 4-[[5-(4-fluorophenyl)-4H-1,2,4-triazol-3-yl]sulfanyl]benzenecarbohydroxamic acid] | 19 | 74 | 103
3 | CSc1sc(-c2nnn(Cc3ccc(C(=O)NO)cc3)n2)c2c1C(=O)CC(C)(C)C2 [comp. 54, 4-[[5-(6,6-dimethyl-3-methylsulfanyl-4-oxo-5,7-dihydro-2-benzothiophen-1-yl)tetrazol-2-yl]methyl]benzenecarbohydroxamic acid] | 18 | 0 | –
4 | O=C(NO)c1ccc(Cn2nnnc2-c2ncccn2)cc1 [comp. 124, 4-[(5-pyrimidin-2-yltetrazol-1-yl)methyl]benzenecarbohydroxamic acid] | 72 | – | –
5 | O=C(NO)c1ccc(Cn2nnc(-c3ccc(C(F)(F)F)cn3)n2)cc1 [comp. 126, 4-[[5-[5-(trifluoromethyl)-2-pyridyl]tetrazol-2-yl]methyl]benzenecarbohydroxamic acid] | 86 | – | –
6 | O=C(NO)c1cc(F)c(Cn2nnc(-c3ccc(C(F)(F)F)cn3)n2)c(F)c1 [comp. 128, 3,5-difluoro-4-[[5-[5-(trifluoromethyl)-2-pyridyl]tetrazol-2-yl]methyl]benzenecarbohydroxamic acid] | 45 | – | –
7 | O=C(NO)c1ccc(Cn2nnc(-c3ncc(C(F)(F)F)cc3N3CCOCC3)n2)cc1 [comp. 130, 4-[[5-[3-morpholino-5-(trifluoromethyl)-2-pyridyl]tetrazol-2-yl]methyl]benzenecarbohydroxamic acid] | 837 | – | –
8 | O=C(NO)c1ccc(Cn2nnnc2-c2ncc(C(F)(F)F)cc2N2CCOCC2)cc1 [comp. 131, 4-[[5-[3-morpholino-5-(trifluoromethyl)-2-pyridyl]tetrazol-1-yl]methyl]benzenecarbohydroxamic acid] | 57 | – | –
9 | O=C(NO)c1ccc(Cn2nnc(Cc3ccccn3)n2)cc1 [comp. 132, 4-[[5-(2-pyridylmethyl)tetrazol-2-yl]methyl]benzenecarbohydroxamic acid;2,2,2-trifluoroacetic acid] | 25 | – | –
10 | O=C(NO)c1ccc(Cn2nnnc2Cc2ccccn2)cc1 [comp. 133, 4-[[5-(2-pyridylmethyl)tetrazol-1-yl]methyl]benzenecarbohydroxamic acid;2,2,2-trifluoroacetic acid] | 283 | – | –
11 | Cn1c(Sc2c(F)cc(C(=O)NO)cc2F)nnc1-c1cc(-c2cccs2)n(-c2ccccc2)n1 [comp. 136, 3,5-difluoro-4-[[4-methyl-5-[1-phenyl-5-(2-thienyl)pyrazol-3-yl]-1,2,4-triazol-3-yl]sulfanyl]benzenecarbohydroxamic acid] | 40 | – | –
12 | O=C(NO)c1cc(F)c(Sc2nnc(-c3ccc(F)cc3)n2CCN2CCOCC2)c(F)c1 [comp. 138, 3,5-difluoro-4-[[5-(4-fluorophenyl)-4-(2-morpholinoethyl)-1,2,4-triazol-3-yl]sulfanyl]benzenecarbohydroxamic acid] | 12 | 79 | –
13 | O=C(NO)c1cc(F)c(Sc2nnc(-c3ccco3)n2Cc2ccccc2)c(F)c1 [comp. 142, 4-[[4-benzyl-5-(2-furyl)-1,2,4-triazol-3-yl]sulfanyl]-3,5-difluoro-benzenecarbohydroxamic acid] | 20 | – | –
14 | O=C(NO)c1cc(F)c(Sc2nnc(-c3cccs3)n2Cc2ccccc2)c(F)c1 [comp. 143, 4-[[4-benzyl-5-(2-thienyl)-1,2,4-triazol-3-yl]sulfanyl]-3,5-difluoro-benzenecarbohydroxamic acid] | 25 | – | –
15 | O=C(NO)c1cc(F)c(Sc2nnc(-c3cccs3)n2Cc2ccco2)c(F)c1 [comp. 144, 3,5-difluoro-4-[[4-(2-furylmethyl)-5-(2-thienyl)-1,2,4-triazol-3-yl]sulfanyl]benzenecarbohydroxamic acid] | 12 | – | –
16 | COc1ccc(C2(c3nnc(Sc4c(F)cc(C(=O)NO)cc4F)n3C)CC2)cc1 [compound 104, 3,5-difluoro-4-[[5-[1-(4-methoxyphenyl)cyclopropyl]-4-methyl-1,2,4-triazol-3-yl]sulfanyl]benzenecarbohydroxamic acid] | 48 | – | –

The next compounds have a lower IC50 [1] than those just listed; values first:

Row | IC50 [1] [nM] | residual percentage in rat S9 fraction [2] [%] | residual percentage in rat plasma [3] [%] | SMILES
17 | 10 | 1 | – | O=C(NO)c1ccc(Cn2nnc(-c3ccc(Cl)cc3Cl)n2)cc1 [comp. 38, 4-[[5-(2,4-dichlorophenyl)tetrazol-2-yl]methyl]benzenecarbohydroxamic acid]
18 | 9 | – | – | O=C(NO)c1ccc(Cn2nnnc2-c2ccc(C(F)(F)F)cn2)cc1 [comp. 127, 4-[[5-[5-(trifluoromethyl)-2-pyridyl]tetrazol-1-yl]methyl]benzenecarbohydroxamic acid]
19 | 9 | – | – | O=C(NO)c1cc(F)c(Cc2noc(-c3ccc(CN4CCCC4)o3)n2)c(F)c1 [compound 202, 3,5-difluoro-4-[[5-[5-(pyrrolidin-1-ylmethyl)-2-furyl]-1,2,4-oxadiazol-3-yl]methyl]benzenecarbohydroxamic acid]
20 | 7 | – | – | Cn1c(Sc2c(F)cc(C(=O)NO)cc2F)nnc1-c1ccc(CN2CCCC2)o1 [comp. 207, 3,5-difluoro-4-[[4-methyl-5-[5-(pyrrolidin-1-ylmethyl)-2-furyl]-1,2,4-triazol-3-yl]sulfanyl]benzenecarbohydroxamic acid]
21 | 6 | 46 | – | O=C(NO)c1ccc(Cn2nnc(-c3cc4ccccc4s3)n2)cc1 [comp. 55, 4-[[5-(benzothiophen-2-yl)tetrazol-2-yl]methyl]benzenecarbohydroxamic acid]
22 | 6 | – | – | Cn1c(Sc2c(F)cc(C(=O)NO)cc2F)nnc1-c1scc2c1OCCO2 [comp. 118, 4-[[5-(2,3-dihydrothieno[3,4-b][1,4]dioxin-5-yl)-4-methyl-1,2,4-triazol-3-yl]sulfanyl]-3,5-difluoro-benzenecarbohydroxamic acid]
23 | 6 | – | – | Cn1c(Sc2c(F)cc(C(=O)NO)cc2F)nnc1-c1cc2ccccc2cn1 [comp. 148, 3,5-difluoro-4-[[5-(3-isoquinolyl)-4-methyl-1,2,4-triazol-3-yl]sulfanyl]benzenecarbohydroxamic acid]
24 | 5 | 16 | – | O=C(NO)c1ccc(Cn2nnc(-c3csc4ccccc34)n2)cc1 [comp. 42, 4-[[5-(benzothiophen-3-yl)tetrazol-2-yl]methyl]benzenecarbohydroxamic acid]
